Reference: patent US4912036A, “Rapid differentiation of bacteria using cyclic polypeptide antibiotics” (Eastman Kodak Company, priority 1986, dated 1990)

How the values were obtained:
S. aureus = test: Inhibition of RIND IX reduction by various cyclic polypeptide antibiotics; format: cell-based, Staphylococcus aureus; settings: Test Method 1 (antibiotic in the test solution), S. aureus about 4.3×10^8 cells/ml, 100 μl of 1 mg/ml antibiotic solution, 30 minutes at 37° C., 635 nm
Description: The following materials were used in this example: stock solutions of RIND IX compound dispersion prepared as described above, glucose (10% in water), trimethyl-1,4-benzoquinone ETA (1.5 mg/ml methanol), and the antibiotics (1 mg/ml in dimethylsulfoxide). S. aureus cells were grown as described above. The final cell concentration in the assay mixture was about 4.3×10^8 cells/ml.
Test solutions were prepared by adding in the order: 1.2 ml of HEPES buffer, 50 μl glucose solution, 1.5 ml of RIND IX dispersion, 100 μl of antibiotic solution, 100 μl of cell suspension and 25 μl of ETA solution. Control solutions were prepared as described in Examples 2 and 3. Optical density readings (OD) were measured at 635 nm at 0 minutes and after incubation at 37° C. for 30 minutes for test and control solutions, and the change in density (ΔOD) was determined. Table VI below lists the results, expressed as corrected percent inhibition of the reduction of the RIND compound. The corrected percent inhibition is calculated by dividing the difference between the ΔOD obtained from the Cell Control without antibiotic and the ΔOD of the test solution, by ΔOD of the Cell Control without antibiotic. All readings were corrected by subtracting readings of the appropriate background Controls.
Solutions containing 2.9 ml HEPES, 50 μl of the antibiotic solution and 100 μl cell solution were incubated at 37° C. for 30 minutes, centrifuged for 10 minutes and decanted. The resulting pellet was then treated with 1.4 ml HEPES, 50 μl glucose solution, 1.5 ml RIND IX dispersion and 25 μl ETA solution, mixed well and the densities recorded as described above in Method 1. The corrected percent inhibition data was calculated as described in Method 1 above.

K. pneumoniae = test: RIND XXIX reduction solution assay, Δ fluorescence; format: cell-based, Klebsiella pneumoniae; settings: K. pneumoniae (gram -) about 5×10^7 cells/ml, polymixin B at 0.01 mg/ml of methanol
Description: (§1) Bacterial suspensions were prepared by growing the cells in BHT broth to stationary phase overnight at 37° C. P. auruginosa was grown with agitation. About 40 ml of each overnight culture was centrifuged, decanted and washed once with 0.05 molar potassium phosphate buffer or 0.05 molar N-2-hydroxy-ethylpiperazine-N'-2-ethanesulfonic acid (HEPES) buffer, pH 7.8, and resuspended in buffer.
(§2) Dispersions containing RIND compounds were prepared by dissolving the RIND compound in N,N-dimethylformamide (DMF) at 16 mg compound per ml of solvent. An aliquot (250 μl) of the resulting solution was added to 500 μl of TRITON X-100 surfactant. This mixture was then added dropwise with stirring to 25 ml of 0.05 molar HEPES buffer. A dispersion of RIND XXIX was prepared similarly except that DMF was acidified with 0.1% sulfuric acid. Compositions containing water-compatible RIND compounds were prepared as described above except the surfactant was omitted.
(§3) Each test solution contained the following: dispersion of RIND XXIX (25 μl) prepared as described above, glucose (400 μl of 10% aqueous solution), tryptose (400 μl of 10% aqueous solution), trimethyl-1,4-benzoquinone ETA (500 μl of 1.5 mg/ml methanol). Aliquots (200 μl) of the mixture were mixed with solutions of the antibiotics (50 μl). The cell suspensions (50 μl) were then added. The final concentration of gramcidin S and tyrocidin were 0.1 mg/ml and 3.3 mg/ml, respectively. The final cell concentration was about 5×10^7 cells/ml. Cell control solutions contained all reagents except antibiotics. Background controls consisted of both buffer and solution controls. […]
(§4) The solutions were incubated at 37° C. for 30 minutes, and the change in fluorescence emission (Δ fluorescence) was determined as the difference between the readings taken when the solutions were first mixed and then after 30 minutes incubation. Measurements were made in a commercially available MICROFLUOR Reader (available from Dynatech Laboratories, Alexandria, Virginia, U.S.A.), modified with an excitation filter at 540 nm, an emission filter at 620 nm and a Xenon lamp. […]

[1] = tested on: viable gram-positive and gram-negative bacteria; test: Differentiation in RIND XXIX solution assays, overall result; format: cell-based; settings: polymixin B at 0.01 mg/ml of methanol
Description: Each test solution contained the following: dispersion of RIND XXIX (25 μl) prepared as described above, glucose (400 μl of 10% aqueous solution), tryptose (400 μl of 10% aqueous solution), trimethyl-1,4-benzoquinone ETA (500 μl of 1.5 mg/ml methanol). Aliquots (200 μl) of the mixture were mixed with solutions of the antibiotics (50 μl). The cell suspensions (50 μl) were then added. The final concentration of gramcidin S and tyrocidin were 0.1 mg/ml and 3.3 mg/ml, respectively. The final cell concentration was about 5×10^7 cells/ml. Cell control solutions contained all reagents except antibiotics. Background controls consisted of both buffer and solution controls. The buffer control contained all reagents except antibiotics and cells. The solution control contained all reagents except cells.
The solutions were incubated at 37° C. for 30 minutes, and the change in fluorescence emission (Δ fluorescence) was determined as the difference between the readings taken when the solutions were first mixed and then after 30 minutes incubation. Measurements were made in a commercially available MICROFLUOR Reader (available from Dynatech Laboratories, Alexandria, Virginia, U.S.A.), modified with an excitation filter at 540 nm, an emission filter at 620 nm and a Xenon lamp.
This example illustrates the practice of this invention to identify a Proteus species in solution. Test solutions and cell control solutions were prepared and tested as described in Example 2 and 3 except that polymixin B was used at 0.01 mg/ml of methanol. The final cell concentration was about 5×10^7 cells/ml.

E. cloacae = test: RIND XXIX reduction solution assay, Δ fluorescence; format: cell-based, Enterobacter cloacae; settings: E. cloacae (gram -) about 5×10^7 cells/ml, polymixin B at 0.01 mg/ml of methanol
Description: as §1, §2, §3, §4

E. coli = test: RIND XXIX reduction solution assay, Δ fluorescence; format: cell-based, Escherichia coli; settings: E. coli (gram -) about 5×10^7 cells/ml, polymixin B at 0.01 mg/ml of methanol
Description: as §1, §2, §3, §4

P. aeruginosa = test: RIND XXIX reduction solution assay, Δ fluorescence; format: cell-based, Pseudomonas aeruginosa; settings: P. aeruginosa (gram -) about 5×10^7 cells/ml, polymixin B at 0.01 mg/ml of methanol
Description: as §1, §2, §3, §4

P. vulgaris = test: RIND XXIX reduction solution assay, Δ fluorescence; format: cell-based, Proteus vulgaris; settings: P. vulgaris (gram -) about 5×10^7 cells/ml, polymixin B at 0.01 mg/ml of methanol
Description: as §1, §2, §3, §4

CN[C@H](CC(C)C)C(=O)N[C@H]1C(=O)N[C@@H](CC(N)=O)C(=O)N[C@H]2C(=O)N[C@H]3C(=O)N[C@H](C(=O)N[C@H](C(=O)O)c4cc(O)cc(O)c4-c4cc3ccc4O)[C@H](O)c3ccc(c(Cl)c3)Oc3cc2cc(c3O[C@@H]2O[C@H](CO)[C@@H](O)[C@H](O)[C@H]2O[C@H]2C[C@](C)(N)[C@H](O)[C@H](C)O2)Oc2ccc(cc2Cl)[C@H]1O [Vancomycin, vancomycin]
Corrected % Inhibition (S. aureus): No Inhibition

polymixin B
Δ Relative Fluorescence (30 Minutes) (K. pneumoniae): 1212 | inhibition of reduction of RIND XXIX by gram-negative microorganisms, in words [1]: inhibited all of the gram-negative microorganisms except Proteus vulgaris from reducing the RIND XXIX compound | Δ Relative Fluorescence (30 Minutes) (E. cloacae): 1975 | Δ Relative Fluorescence (30 Minutes) (E. coli): 1245 | Δ Relative Fluorescence (30 Minutes) (P. aeruginosa): 1287 | Δ Relative Fluorescence (30 Minutes) (P. vulgaris): 3079
